{"source": "patent US20210205413A1", "about": "(Nektar Therapeutics, priority 2018, published 2021)", "key": {"[1]": {"test_system": "CD4+FoxP3+CD25bright Tregs", "assay": "Phase I single ascending dose study in healthy volunteers: Tregs in peripheral blood by flow cytometry", "format": "in vivo, human", "description": "(§1) A double-blind, randomized, placebo-controlled study is conducted to evaluate the safety, tolerability, pharmacokinetics, and pharmacodynamics of single ascending low sub-cutaneous doses of an RUR20kD-IL-2 composition (RUR20kD-IL-2) in healthy volunteers. […] Twelve subjects are randomized to each dose cohort, nine of whom received a single subcutaneous dose of RUR20kD-IL-2 while three received placebo. […] The drug product is supplied in single-use glass vials and stored at 2-8° C. […] Placebo is a commercially available 0.9% sodium chloride solution. A starting dose of 0.3 μg/kg is chosen using the minimally anticipated biological effect level (MABEL) approach and is supported by the no observed adverse effect level (NOAEL) in the most sensitive species from nonclinical toxicology studies.\n(§2) The primary objective of the study is to evaluate the safety and tolerability of RUR20kD-IL-2 administered as a single subcutaneous dose. […] In a first phase of the study, immune markers are tested pre-dose up to 20 hours post-dose. Specifically, Tregs, CD4^+-T cells, CD8^+-T cells, natural killer (NK) cells, cytokines, soluble CD25, and RNA are tested in RUR20kD-IL-2- and placebo-receiving cohorts. In subsequent phases, the same immune markers are also tested at 4-, 5-, 6-, 7-, 8-, 10-, 12-, 15-, 18-, 20-, 25-, 30-, 40, and 50-days post-dose."}, "[2]": {"test_system": "Balb/c mice (KLH DTH model)", "assay": "Antigen dependent, T cell-mediated DTH model with KLH rechallenge", "format": "in vivo", "description": "(§3) To develop the DTH model, Balb/c mice are sensitized with a subcutaneous administration of a model antigen keyhole limpet hemocyanin (KLH) emulsified in complete and incomplete Freund's adjuvant. […] Inflamed ears are subjected to immunohistochemistry (IHC) to quantify percent of FoxP3+ Treg cells post KLH challenge. The specificity of response is assessed after an additional 3-4 weeks with no treatment by either KLH rechallenge or conducting sensitization and challenge with an unrelated antigen ovalbumin (OVA). […] Post ten days of 2nd sensitization, mice are challenged with OVA eight times orally, every alternative day. […] Severity of allergic response is assessed by clinical scoring within 30-45 min of post 8th challenge. Further, serum mast cell protease 1 (MCPT 1) and OVA specific IgE titers are quantified. The percent Treg is determined by flow cytometry in peripheral blood and in spleen."}, "Tregs": {"test_system": "Tregs", "assay": "Single-dose study in cynomologous monkey: Tregs in blood by flow cytometry", "format": "in vivo", "description": "A series of blood samples are taken from each animal before treatment (day −6 and −1) and at multiple intervals following treatment for assessment by flow cytometry of Treg cell numbers and activation state.\nFor immunophenotyping analysis, blood samples (approximately 1.0 mL) are collected from each monkey at the following time points: Pre-treatment (Day −6 and −1), Day 2, Day 3, Day 4, Day 5, Day 6, Day 7, Day 10, Day 14, and Day 21 post treatment. Venipuncture samples are collected into tubes containing the anticoagulant, K2EDTA. Tubes are placed on wet ice pending transfer. The whole blood samples are analyzed by flow cytometry using the following panels, and the samples are analyzed for the following: • T cell panel: CD45/CD3/CD4/CD8/ICOS • TB/NK panel: CD45/CD3/CD16/CD20 • pSTAT5 panel: CD3/CD4/CD8/CD25/CD127/pSTAT5 • Treg panel 1: CD3/CD4/CD8/CD25/FoxP3/Ki67 • Treg panel 2: CD3/CD4/CD8/CD25/FoxP3/Helios Computerized systems can be used for the conduct of the study, for example flow cytometry data acquisition can use BD FACSCanto II/FACSDiva LEGENDPlex Data Analysis Software, and flow cytometry data analysis can use De Novo FCS Express software.\nValues from male and female are averaged, and the magnitude of change is shown relative to d-1 values, marked by the dotted line."}, "CD56+ NK cells": {"test_system": "CD56+ NK cells", "assay": "Phase I single ascending dose study in healthy volunteers: NK cells", "format": "in vivo, human", "description": "as §1, §2"}, "[3]": {"assay": "Phase I single ascending subcutaneous dose study in healthy volunteers: pharmacokinetics", "format": "in vivo, human", "conditions": "for AUC0-14 d / Cmax / tmax: Single Dose Study", "description": "as §1, §2"}, "[4]": {"test_system": "Balb/C mice (OVA food allergy model)", "assay": "Food allergy model (OVA sensitization and oral challenge)", "format": "in vivo", "description": "as §3"}, "CD4+ and CD8+ T cells": {"test_system": "CD4+ and CD8+ T cells", "assay": "Phase I single ascending dose study in healthy volunteers: Tcon cells", "format": "in vivo, human", "description": "as §1, §2"}}, "note": "“And” between values parts separate entries of the source, which are not always exact repeats. Identical values can stand only once. “Also recorded” adds a separate entry of the source."}
{"substance": "(1,3-bis(methoxypoly(ethylene glycol)10kDcarbamoyl)-2-propanoxy)-4-butanamide)interleukin-2) [RUR20kD-IL-2]", "values": [{"measurement": "mean increase in numbers of CD4+FoxP3+CD25bright Tregs compared to placebo", "setting": "[1]; single SC 3.0 μg/kg", "result": 3.0, "unit": "fold"}, {"measurement": "mean increase in numbers of CD4+FoxP3+CD25bright Tregs compared to pre-dose", "setting": "[1]; single SC 3.0 μg/kg", "result": 3, "unit": "fold"}, {"measurement": "time of peak (maximal) Treg response", "setting": "[1]; single SC 3.0 μg/kg", "result": 84, "unit": "h"}, {"measurement": "mean increase in numbers of CD4+FoxP3+CD25bright Tregs compared to placebo", "setting": "[1]; single SC 6.0 μg/kg", "result": 3.5, "unit": "fold"}, {"measurement": "mean increase in numbers of CD4+FoxP3+CD25bright Tregs compared to pre-dose", "setting": "[1]; single SC 6.0 μg/kg", "result": 3.5, "unit": "fold"}, {"measurement": "mean increase in numbers of CD4+FoxP3+CD25bright Tregs compared to placebo", "setting": "[1]; single SC 9.0 μg/kg", "result": 4.1, "unit": "fold"}, {"measurement": "mean increase in numbers of CD4+FoxP3+CD25bright Tregs compared to pre-dose", "setting": "[1]; single SC 9.0 μg/kg", "result": 4.1, "unit": "fold"}, {"measurement": "mean increase in numbers of CD4+FoxP3+CD25bright Tregs compared to placebo", "setting": "[1]; single SC 13.5 μg/kg", "result": 5.0, "unit": "fold"}, {"measurement": "mean increase in numbers of CD4+FoxP3+CD25bright Tregs compared to pre-dose", "setting": "[1]; single SC 13.5 μg/kg", "result": 5, "unit": "fold"}, {"measurement": "mean increase in numbers of CD4+FoxP3+CD25bright Tregs compared to pre-dose", "setting": "[1]; single SC 20.0 μg/kg", "result": 8.1, "unit": "fold"}, {"measurement": "increase in mean peak Treg:CD8 ratio over baseline", "setting": "[1]; single SC 28 μg/kg", "result": 15, "unit": "fold"}, {"measurement": "mean peak increase in numbers of CD25-bright Tregs above pre-dose values", "setting": "[1]; single SC 28 μg/kg", "result": 17, "unit": "fold"}, {"measurement": "mean peak percentage of CD25bright Tregs", "setting": "[1]; single SC 28.0 μg/kg, increased from 0.5%", "result": 7.4, "unit": "%"}, {"measurement": "numbers of Tregs versus placebo subjects", "setting": "[1]; single SC 0.3 and 1.0 μg/kg", "result": "no change in the numbers of Tregs; also recorded: No changes in total CD4+ Tregs"}, {"measurement": "total CD4+FoxP3+CD25+ Treg population", "setting": "[1]; single SC 3.0, 6.0, 9.0 and 13.5 μg/kg", "result": "dose-dependent increase in the total CD4+FoxP3+CD25+ Treg population"}, {"measurement": "doses at which increases in Treg activation markers (ICOS and CTLA4) were observed", "setting": "[1]; single SC dose", "result": "≥ 0.0135", "unit": "mg/kg"}, {"measurement": "time until CD4+FoxP3+CD25bright Treg levels return to baseline", "setting": "[1]; single SC dose, 3.0 μg/kg and above", "result": "20 to 25", "unit": "days"}, {"measurement": "days at which Treg levels peak", "setting": "[1]; single SC dose, 3.0 to 28.0 μg/kg cohorts", "result": "10 to 12", "unit": "days"}, {"measurement": "inflammatory response to KLH rechallenge", "setting": "[2]; SC 0.003-0.3 mg/kg q3d, day 0 through day 8", "result": "suppressed the inflammatory response to KLH rechallenge in a dose dependent manner"}, {"measurement": "FoxP3+ Treg cells in inflamed ears (IHC)", "setting": "[2]; post KLH challenge", "result": "significant infiltration of FoxP3+ Treg cells"}, {"measurement": "durability and specificity of suppressive effect on inflammation", "setting": "[2]; re-challenge post 3-4 weeks without further administration, same and unrelated antigen (OVA)", "result": "durable and antigen-specific"}, {"measurement": "day FoxP3 MFI nearly returns to pre-dose levels", "setting": "Tregs; single SC 25 μg/kg", "result": "14 to 21", "unit": "days"}, {"measurement": "day by which CD25 MFI returns to near pre-dose levels", "setting": "Tregs; single SC 25 μg/kg", "result": "≤ 21", "unit": "days"}, {"measurement": "day of maximum CD25 MFI", "setting": "Tregs; single SC 25 μg/kg", "result": 6, "unit": "days"}, {"measurement": "days by which Treg numbers return to near d-1 levels", "setting": "Tregs; single SC 25 μg/kg", "result": "14 to 21", "unit": "days"}, {"measurement": "time of maximum FoxP3 MFI", "setting": "Tregs; single SC 25 μg/kg", "result": 6, "unit": "days"}, {"measurement": "time of maximum Treg cell numbers", "setting": "Tregs; single SC 25 μg/kg", "result": "seven days following administration"}, {"measurement": "duration of sustained Treg mobilization and activity", "setting": "Tregs; single administration", "result": "over 14 days"}, {"measurement": "increase in NK cells", "setting": "CD56+ NK cells; highest dose tested (28.0 μg/kg)", "result": "2 fold and 3.5 fold"}, {"measurement": "percentage of CD56+ NK cells expressing Ki67", "setting": "CD56+ NK cells; single SC 3.0 μg/kg", "result": "~10", "unit": "%"}, {"measurement": "percentage of CD56+ NK cells expressing Ki67", "setting": "CD56+ NK cells; single SC 6.0 μg/kg", "result": "20-30%"}, {"measurement": "percentage of CD56+ NK cells expressing Ki67", "setting": "CD56+ NK cells; single SC 9.0 μg/kg", "result": "30-40%"}, {"measurement": "percentage of CD56+ NK cells expressing Ki67", "setting": "CD56+ NK cells; single SC 13.5 μg/kg", "result": "30-40%"}, {"measurement": "percentage and absolute numbers of NK cells", "setting": "CD56+ NK cells; single SC 13.5 and 20.0 μg/kg", "result": "small increase in the percentage and absolute numbers of NK cells"}, {"measurement": "AUC0-14 d", "setting": "[3]; 3.0 μg/kg, Median (n = 9)", "result": 214, "unit": "ng·days/mL"}, {"measurement": "Cmax", "setting": "[3]; 3.0 μg/kg, Median (n = 9)", "result": 21, "unit": "ng/mL"}, {"measurement": "tmax", "setting": "[3]; 3.0 μg/kg, Median (n = 9)", "result": 84, "unit": "h"}, {"measurement": "AUC0-14 d", "setting": "[3]; 3.0 μg/kg, max", "result": 388, "unit": "ng·days/mL"}, {"measurement": "Cmax", "setting": "[3]; 3.0 μg/kg, max", "result": 41, "unit": "ng/mL"}, {"measurement": "tmax", "setting": "[3]; 3.0 μg/kg, max", "result": 336, "unit": "h"}, {"measurement": "AUC0-14 d", "setting": "[3]; 3.0 μg/kg, min", "result": 143, "unit": "ng·days/mL"}, {"measurement": "Cmax", "setting": "[3]; 3.0 μg/kg, min", "result": 13, "unit": "ng/mL"}, {"measurement": "tmax", "setting": "[3]; 3.0 μg/kg, min", "result": 31.2, "unit": "h"}, {"measurement": "Cmax", "setting": "[3]; 6.0 μg/kg, Median (n = 9)", "result": 46, "unit": "ng/mL"}, {"measurement": "tmax", "setting": "[3]; 6.0 μg/kg, Median (n = 9)", "result": 120, "unit": "h"}, {"measurement": "AUC0-14 d", "setting": "[3]; 6.0 μg/kg, max", "result": 705, "unit": "ng·days/mL"}, {"measurement": "Cmax", "setting": "[3]; 6.0 μg/kg, max", "result": 70, "unit": "ng/mL"}, {"measurement": "tmax", "setting": "[3]; 6.0 μg/kg, max", "result": 220, "unit": "h"}, {"measurement": "AUC0-14 d", "setting": "[3]; 6.0 μg/kg, min", "result": 73, "unit": "ng·days/mL"}, {"measurement": "Cmax", "setting": "[3]; 6.0 μg/kg, min", "result": 13, "unit": "ng/mL"}, {"measurement": "tmax", "setting": "[3]; 6.0 μg/kg, min", "result": 48, "unit": "h"}, {"measurement": "Half-life", "setting": "[3]; healthy volunteers, single SC dose, decline after approximately 2 weeks post-dose, preliminary", "result": "190 to 220", "unit": "h"}, {"measurement": "time of maximum concentrations post-dose", "setting": "[3]; healthy volunteers, single SC dose, preliminary PK analysis", "result": "4 to 6", "unit": "days"}, {"measurement": "Tregs (flow cytometry, peripheral blood and spleen)", "setting": "[4]; SC 0.1 mg/kg q3d×3", "result": "significant increase in Tregs"}, {"measurement": "levels of MCPT1 and anti-OVA specific IgE titers", "setting": "[4]; SC 0.1 mg/kg q3d×3", "result": "significant decrease in levels of MCPT1 and anti-OVA specific IgE titers"}, {"measurement": "anaphylaxis symptoms (clinical scores)", "setting": "[4]; SC 0.1 mg/kg q3d×3, repeated oral OVA", "result": "efficacious in decreasing the high degree of anaphylaxis symptoms"}, {"measurement": "absolute number of CD8+ T cells and percentage of Ki67+ CD8+ T cells", "setting": "CD4+ and CD8+ T cells; single SC 13.5 μg/kg", "result": "small increases"}, {"measurement": "percentage or numbers of T cell populations (CD4+, CD8+)", "setting": "CD4+ and CD8+ T cells; single SC dose, any dose", "result": "no changes in percentage or numbers of T cell populations (CD4+, CD8+); also recorded: no changes in percentages or numbers of conventional CD4+ or CD8+ T cells"}]}
